# Source: ChEMBL document CHEMBL4316632, “Antiplasmodial Diterpenoids from Psiadia arguta” (J Nat Prod, 2019)
# System: Plasmodium falciparum
# Test: Antiplasmodial activity against Plasmodium falciparum 3D7 assessed as reduction in parasite viability incubated for 48 hrs by APAD colorimetric test
# Assay type: functional, organism-based
# Settings: 3D7, 48 h
row,SMILES,IC50
1,CC(=O)OCC[C@@H](C)CC[C@@H]1[C@@]2(C)CCCC(C)(C)[C@@H]2CC[C@@]1(C)O,33.2 µM
2,C/C(=C\CO)CC[C@@H]1[C@@]2(C)CCCC(C)(C)[C@@H]2CC[C@@]1(C)O,36.6 µM
3,CCC(C)CC(=O)OCCC(C)CC[C@@H]1[C@@]2(C)CCCC(C)(C)[C@@H]2CC[C@@]1(C)O (some centres undefined),54.8 µM
4,CC(=O)OC/C=C(\C)CC[C@@H]1[C@@]2(C)CCCC(C)(C)[C@@H]2CC[C@@]1(C)O,29.1 µM
5,CC(CCOC(=O)CC(C)CC[C@H]1[C@]2(C)CCCC(C)(C)[C@H]2CC[C@]1(C)O)CC[C@@H]1[C@@]2(C)CCCC(C)(C)[C@@H]2CC[C@@]1(C)O (some centres undefined),> 50 µg/mL
6,CCC(C)C(=O)OCCC(C)CC[C@@H]1[C@@]2(C)CCCC(C)(C)[C@@H]2CC[C@@]1(C)O (some centres undefined),58 µM
7,CC(CCOC=O)CC[C@@H]1[C@@]2(C)CCCC(C)(C)[C@@H]2CC[C@@]1(C)O (some centres undefined),73 µM
8,C[C@H](CCO)CC[C@@H]1[C@@]2(C)CCCC(C)(C)[C@@H]2CC[C@@]1(C)O [LABDANEDIOL],22.2 µM
9,C=C[C@](C)(O)CC[C@@H]1[C@@]2(C)CCCC(C)(C)[C@@H]2CC[C@@]1(C)O [SCLAREOL],35 µM
